11 compounds from patent US7615643B2 (SmithKline Beecham Corporation, priority 2006, dated 2009) can be followed below.

The target in this assay is T1, PLK1 (Homo sapiens, UniProt P53350).
T1 construct: PLK kinase domain (amino acids 21-346 preceded by MKKGHHHHHHD); made in house; host or cells: baculovirus infected T. ni cells
T1 sequence (P53350 21-346): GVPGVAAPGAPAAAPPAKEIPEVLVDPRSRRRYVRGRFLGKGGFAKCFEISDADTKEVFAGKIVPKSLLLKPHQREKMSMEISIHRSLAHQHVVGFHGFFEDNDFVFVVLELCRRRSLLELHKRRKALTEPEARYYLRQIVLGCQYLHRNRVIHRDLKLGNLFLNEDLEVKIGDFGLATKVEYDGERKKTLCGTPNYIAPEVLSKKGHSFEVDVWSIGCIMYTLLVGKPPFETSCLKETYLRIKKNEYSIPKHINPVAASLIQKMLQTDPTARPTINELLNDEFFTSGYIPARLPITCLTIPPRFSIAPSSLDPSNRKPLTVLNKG
Briefly: Assay for inhibition of PLK1 (SPA kinase assay). The format is biochemical. The conditions noted are these: 1 μM ATP, 2 nM PLK1 kinase domain, read-out: PLK1 pIC50 (converted). As for the experimental part:
I. Assay for Inhibition of PLK1
A. Preparation of 6× N-terminal His-tagged PLK Kinase Domain
6× N-terminal His-tagged PLK kinase domain (amino acids 21-346 preceded by MKKGHHHHHHD) SEQ ID: No. 1. was prepared from baculovirus infected T. ni cells under polyhedrin promoter control. All procedures were performed at 4° C. Cells were lysed In 50 mM HEPES, 200 mM NaCl, 50 mM imidazole, 5% glycerol; pH 7.5. The homogenate was centrifuged at 14K rpm in a SLA-1500 rotor for 1 hr and the supernatant filtered through a 1.2 micron filter. The supernatant was loaded onto a Nickel chelating Sepharose (Amersham Pharmacia) column and washed with lysis buffer. Protein was eluted using 20%, 30% and 100% buffer B steps where buffer B was 50 mM HEPES, 200 mM NaCl, 300 mM imidazole, 5% glycerol; pH 7.5. Fractions containing PLK were determined by SDS-PAGE. Fractions containing PLK were diluted five-fold with 50 mM HEPES, 1 mM DTT, 5% glycerol; pH 7.5, then loaded on an SP Sepharose (Amersham Pharmacia) column. After washing the column with 50 mM HEPES, 1 mM DTT, 5% glycerol; pH 7.5, PLK was step eluted with 50 mM HEPES, 1 mM DTT, 500 mM NaCl; 5% glycerol; pH 7.5. PLK was concentrated using a 10 kDa molecular weight cutoff membrane and then loaded onto a Superdex 200 gel filtration (Amersham Pharmacia) column equilibrated in 25 mM HEPES, 1 mM DTT, 500 mM NaCl, 5% glycerol; pH 7.5. Fractions containing PLK were determined by SDS-PAGE. PLK was pooled, aliquoted and stored at −80° C. Samples were quality controlled using mass spectrometry, N-terminal sequencing and amino acid analysis.
B. Enzyme Activity +/− Inhibitors was Determined as Follows:
All measurements were obtained under conditions where signal production increased linearly with time and enzyme. Test compounds were added to white 384-well assay plates (0.1 μL for 10 μL and some 20 μL assays, 1 μL for some 20 μL assays) at variable known concentrations in 100% DMSO. DMSO (1-5% final, as appropriate) and EDTA (65 mM in reaction) were used as controls. Reaction Mix was prepared as follows at 22° C.: • 25 mM HEPES, pH 7.2 • 15 mM MgCl2 • 1 μM ATP • 0.05 μCi/well ^33P-γ ATP (10 Ci/mMol) • 1 μM substrate peptide (Biotin-Ahx-SFNDTLDFD) SEQ ID:No. 2. • 0.15 mg/mL BSA • 1 mM DTT • 2 nM PLK1 kinase domain (added last)
Reaction Mix (10 or 20 μL) was quickly added to each well immediately following addition of enzyme via automated liquid handlers and incubated 1-1.5 h at 22° C. The 20 μL enzymatic reactions were stopped with 50 μL of stop mix (50 mM EDTA, 4.0 mg/mL Streptavidin SPA beads in Standard Dulbecco's PBS (without Mg^2+ and Ca^2+), 50 μM ATP) per well. The 10 μL reactions were stopped with 10 μL of stop mix (50 mM EDTA, 3.0 mg/mL Streptavidin-coupled SPA imaging Beads (“LeadSeeker”) in Standard Dulbecco's PBS (without Mg^2+ and Ca^2+), 50 μM ATP) per well. Plates were sealed with clear plastic seals, spun at 500×g for 1 min or settled overnight, and counted in Packard TopCount for 30 seconds/well (regular SPA) or imaged using a Viewlux imager (LeadSeeker SPA). Signal above background (EDTA controls) was converted to percent Inhibition relative to that obtained in control (DMSO-only) wells.
`C[C@@H](Oc1cc(-n2cnc3cc(OC(F)(F)F)ccc32)sc1C(N)=O)c1cccc(OC2CCN(C)CC2)c1Cl` [Example 62, 3-[((1R)-1-{2-chloro-3-[(1-methyl-4-piperidinyl)oxy]phenyl}ethyl)oxy]-5-{5-[(trifluoromethyl)oxy]-1H-benzimidazol-1-yl}-2-thiophenecarboxamide]: the IC50 was less than 100 nM.
As for `C[C@@H](Oc1cc(-n2cnc3cc(Cl)ccc32)sc1C(N)=O)c1cccc(OC2CCN(CCF)CC2)c1Cl` [Example 21, 5-(5-Chloro-1H-benzimidazol-1-yl)-3-{[(1R)-1-(2-chloro-3-{[1-(2-fluoroethyl)-4-piperidinyl]oxy}phenyl)ethyl]oxy}-2-thiophenecarboxamide], the figure is less than 100 nM; as for `CN1CCC(Oc2cccc(COc3cc(-n4cnc5cc(-c6cnn(C)c6)ccc54)sc3C(N)=O)c2)CC1` [Example 84, 3-[({3-[(1-Methyl-4-piperidinyl)oxy]phenyl}methyl)oxy]-5-[5-(1-methyl-1H-pyrazol-4-yl)-1H-benzimidazol-1-yl]-2-thiophenecarboxamide], less than 100 nM; as for `C[C@@H](Oc1cc(-n2cnc3cc(-c4cccnc4)ccc32)sc1C(N)=O)c1cccc(OC2CCN(C)CC2)c1Cl` [Example 11, 3-[((1R)-1-{2-chloro-3-[(1-methyl-4-piperidinyl)oxy]pheny}ethyl)oxy]-5-[5-(3-pyridinyl)-1H-benzimidazol-1-yl]-2-thiopnenecarboxamide], less than 100 nM.
For `C[C@@H](Oc1cc(-n2cnc3cc(F)c(Cl)cc32)sc1C(N)=O)c1cccc(OC2CCN(C)CC2)c1Cl` [Example 70, 5-(6-Chloro-5-fluoro-1H-benzimidazol-1-yl)-3-[((1R)-1-{2-chloro-3-[(1-methyl-4-piperidinyl)oxy]phenyl}ethyl)oxy]-2-thiophenecarboxamide] the value was less than 100 nM; for `CC(Oc1cc(-n2cnc3cc(-c4cnn(C)c4)ccc32)sc1C(N)=O)c1ccnc(OC2CCNCC2)n1` (racemic) [Example 77, (+/−)-5-[5-(1-Methyl-1H -pyrazol-4-yl)-1H-benzimidazol-1-yl]-3-({1-[2-(4-piperidinyloxy)-4-pyrimidinyl]ethyl}oxy)-2-thiophenecarboxamide], 100 to 1000 nM; for `C[C@@H](Oc1cc(-n2cnc3cc(F)c(F)cc32)sc1C(N)=O)c1cccc(OC2CCN(C)CC2)c1Cl` [Example 66, 3-[((1R)-1-{2-chloro-3-[(1-methyl-4-piperidinyl)oxy]phenyl}ethyl)-oxy]-5-(5,6-difluoro-1H-benzimidazol-1-yl)-2-thiophenecarboxamide], less than 100 nM.
In the case of `C[C@@H](Oc1cc(-n2cnc3cc(Cl)ccc32)sc1C(N)=O)c1cccc(OC[C@@H]2CNCCO2)c1Cl` [Example 28, 5-(5-Chloro-1H-benzimidazol-1-yl)-3-{[(1R)-1-(2-chloro-3-{[(2S)-2-morpholinylmethyl]oxy}phenyl)ethyl]oxy}-2-thiophenecarboxamide], the IC50 was less than 100 nM.
Consider `C[C@@H](Oc1cc(-n2cnc3cc(OC(F)(F)F)ccc32)sc1C(N)=O)c1cccc(OC2CCNCC2)c1Cl` [Example 61, 3-({(1R)-1-[2-chloro-3-(4-piperidinyloxy)phenyl]ethyl}oxy)-5-{5-[(trifluoromethyl)oxy]-1H-benzimidazol-1-yl}-2-thiophenecarboxamide], for which the IC50 was less than 100 nM.
For `C[C@@H](Oc1cc(-n2cnc3cc(Cl)ccc32)sc1C(N)=O)c1cccc(OC[C@H]2CNCCO2)c1Cl` [Example 27, 5-(5-Chloro-1H-benzimidazol-1-yl)-3-{[(1R)-1-(2-chloro-3-{[(2R)-2-morpholinylmethyl]oxy}phenyl)ethyl]oxy}-2-thiophenecarboxamide] the value was less than 100 nM; for `C[C@@H](Oc1cc(-n2cnc3cc(Cl)ccc32)sc1C(N)=O)c1cccc(OC2CCNCC2)c1Cl` [Example 8, 5-(5-Chloro-1H-benzimidazol-1-yl)-3-({(1R)-1-[2-chloro-3-(4-piperidinyloxy)phenyl]ethyl}oxy)-2-thiophenecarboxamide], less than 100 nM.
